Measurements: US20260209152A1, “Substituted Hydroxystilbene Compounds and Derivatives, Synthesis and Uses Thereof” (Kynan Duke IP, LLC, priority 2019, published 2026)
Read-outs that look alike come from different tables or passages of the source.

Assays:
[1] = Cell viability in PBMC IL-17 assay (assay number 1322); type: cell-based, human; details: human
Protocol: (§1) The inflammatory skin disease psoriasis is characterized by cytokines IL-17A and TNFα. In the present assay, human peripheral blood mononuclear cells (PBMC) are stimulated with beads coated with antibodies against CD3 and CD28 to activate the T-cell receptor, and stimulated with IL-23 to promote T-helper17 activity. The cells are incubated for three days, then the secreted level of IL-17A is measured in the culture supernatant using AlphaLISA and the amount of living cells is measured by addition of resazurin (PrestoBlue®) to identify compounds that inhibit cell proliferation or viability. […] Compounds which inhibit IL-17A secretion may be expected to have efficacy in psoriasis.
(§2) • IL-17A concentration in the supernatants is measured using an alphaLISA kit (Perkin Elmer, cat no. AL219F). • Pretest to find optima dilution of samples: Test 5 μL supernatant from control wells and run IL-17A alphaLISA assay with only 2 hours of incubation. • When data are available, remove assay plates from incubation and equilibrate to room temperature for 30 minutes. • Transfer 5 μL or corrected amounts of supernatant to a 384-proxy plate • Add 5 μL alphaLISA acceptor beads. • Incubate 1 hour at room temperature • Add 5 μL donor beads • Incubate overnight at room temperature protected from light. • Add 7 μL PrestoBlue reagent (resazurin)/well to the assay plate and incubated for 2-4 hours at 37° C./5% CO2. The fluorescence in the wells is measured (Ex615/Em 535).
(§3) The level of living cells in the wells is measured by the addition of PrestoBlue® and the conversion of Resazurin to Resorufin (fluorescent) in living cells is measured.
(§4) The effect of the test compounds on viability/proliferation is normalized to the PrestoBlue signal in the negative control wells treated with a toxic compound, Terfenadine.

human PBMC = assay: as above; type: cell-based; details: Homo sapiens
Protocol: as §1, §2, §3, §4

[2] = Cell viability in keratinocyte IL-8 assay (assay number 1244); type: cell-based, human; details: human, primary human keratinocytes induced with IL-17A and TNFα
Description: • 1. Determination of inhibition of CCL2 release from IL-4, IL-13, IL-22 and IFN-γ-stimulated primary human keratinocytes [assay number 1280] and determination of the effect on cell viability [assay number 1243]. • 2. Determination of inhibition of IL-8 release from IL-17A and TNFα-induced primary human keratinocytes [assay number 1250] and determination of the effect on cell viability [assay number 1244]. • 3. Determination of inhibition of IL-17A secretion from human PBMC stimulated with antiCD3/antiCD28-coated beads [assay number 1321] and determination of the effect on cell viability [assay number 1322]. • 4. Determination of inhibition of IL-4 and IL-2 secretion from human CD4-positive T-cells stimulated with antiCD2/antiCD3/antiCD28-coated beads [assay number 1297, 1298] and determination of the effect on cell viability [assay number 1299].

[3] = system: IL-2 secretion from human CD4-positive T-cells stimulated with antiCD2/antiCD3/antiCD28-coated beads; assay: T-cell IL-2 assay (assay number 1297, 1298); type: cell-based; details: for Max Eff.: IL-2 (1297): highest effect as percentage of control maximum effect; for EC50: inhibition of IL-2 secretion, human CD4-positive T-cells, read-out: Abs EC50: IL-2 (1297)
Protocol: Inhibition of IL-4 and IL-2 secretion from human CD4-positive T-cells stimulated with antiCD2/antiCD3/antiCD28-coated beads. LEO Pharma Open Innovation assay number 1297, 1298, 1299.
Then the level of secreted of IL-4 is measured in the culture supernatant using electrochemiluminescence (MSD kits, Meso Scale Discovery), IL-2 is measured by proximity homogenous time-resolved fluorescence (HTRF) and the amount of living cells is measured by addition of resazurin (PrestoBlue®) to allow identifying compounds that inhibit T-cell proliferation or viability.
• Peripheral blood mononuclear cells (PBMC) are isolated from fresh human buffy coats by centrifugation on Lymphoprep® following instructions from Sebmate™ (Stemcell). • The cells are resuspended in 30 ml of PBS+2% Serum and counted. • CD4 positive T-cells are isolated from freshly isolated PBMC using EasySep™ humane CD4+ T-cell Isolation Kit (Catalog #17952) and following the manufacturer's protocol. • Cells are spun down and resuspended in freezing medium (X-vivo 15+10% FBS+5% DMSO) • Cells are frozen in aliquots of 3×10^7 cells/vial matching one 384 plate. Cells are place in Coolcell box and place in −80° C. freezer for one day then transferred to the −150° C. freezer in a prechilled box.
• Prepare assay medium: 500 ml X-Vivo 15+5 ml Glutamax (2 mM final)+5 ml pen/strep (100 U/ml final). • Add 5 μL medium to the wells of a 384 well plate (Greiner cat. No 788986). • CD4+ Cells: Thaw frozen cells from −150° C. freezer in 37° C. bath, and pipette the cells into 10 ml medium. Spin 10 min @170 g. • Resuspend pellet in 3.5 ml per 2.5×10^7 cells and add 10 μL per well to the plate (40000 cells/well) • Test compounds: Prepare compound-containing source plate, i.e. titrations in DMSO to be transferred to the assay plate. • Add 25 nL compounds and controls from the source plate to the assay plate (with cells). • Beads (T Cell Activation/Expansion Kit-human, Miltenyi Biotech, cat. no. 130-091-441): Coat beads with antibodies according to the kit procedure. • Add 10 μL beads to each well except for the negative controls. One bead per cell. Add 10 μL medium to the negative controls. • Incubate plates at 37° C., 5% CO2/95% air for 2 days.
• Remove plates from incubation and equilibrate to room temperature for 30 minutes. • IL-4 concentration in 10 μL supernatant is measured using an MSD IL-4 384-plate kit (Custom made) according to manufacturer protocol. • IL-2 concentrations in the supernatant is measured by an IL-2 HTRF kit, CisBio, cat. No 62HIL02PEH. • Add 4 μL medium to white proxi 384-well plates • Add 1 μL supernatant. • Add 4 μL mHTRF mix (each diluted 1:300 in ⅔ reconstitution buffer and ⅓ assay medium). • Spin the plates for 1 minute at 170 g • Seal and incubate overnight and read fluorescence in a plate reader • The amount of viable cells is measured by PrestoBlue® reagent • Add 15 μL diluted PrestoBlue® reagent (resazurin) corresponding to 2.5 μL Prestoblue/well to the assay plate. • Incubate overnight at 37° C./5% CO2. The fluorescence in the wells is measured (Ex615/Em 535).
IL-4 concentration in the supernatants is measured using electrochemiluminescence (MSD kits, Meso Scale Discovery). IL-2 concentration in the supernatants is measured using homogeneous time-resolved fluorescence resonance (TR-FRET). The assay is quantified by measuring fluorescence at 665 nm (proportional to IL-2 concentration) and 620 nm (control). A ratio 665/620*1000 is calculated.
The capacity of the test compound to inhibit IL-4 and IL-2 release is normalized to the signal in the negative control wells with un-stimulated T-cells.

[4] = maximum reduction of cell viability in PBMC IL-17 assay, read-out: Max Eff.: Viab (1322)
[5] = cell viability in PBMC IL-17 assay, read-out: Abs EC50: Viab (1322)
[6] = maximum reduction of cell viability in IL-8 assay, read-out: Max Eff.: Viab (1244)
[7] = keratinocyte IL-8 assay, read-out: maximum reduction of cell viability

| EC50 [3] [µM] | Compound | cytotoxicity at 3 days [1, 4] [%] | EC50 (human PBMC; [5]) [µM] | cytotoxicity [2, 6] [%] | Max Eff.: IL-2 (1297) [3] [%] | cytotoxicity [2, 7] [%] | cytotoxicity at 3 days ([1]; PBMC IL-17 assay, read-out: maximum reduction of cell viability) [%] | EC50 (human PBMC; PBMC IL-17 assay, read-out: EC50, cell viability) [µM] | inhibition of IL-2 secretion, in words [3] |
| --- | --- | --- | --- | --- | --- | --- | --- | --- | --- |
| 5 | COc1cc(/C=C/c2cc(O)cc(OC)c2CC=C(C)C)ccc1O [Compound 1, (E)-3-(4-hydroxy-3-methoxystyryl)-5-methoxy-4-(3-methylbut-2-en-1-yl)phenol] | 50 | 5 | 92 | 42 |  |  |  |  |
| 5 | CCOc1cc(O)cc(/C=C/c2ccc(O)c(OC)c2)c1CC=C(C)C [Compound 8, (E)-3-Ethoxy-5-(4-hydroxy-3-methoxystyryl)-4-(3-methylbut-2-en-1-yl)phenol] | 57 | 0.582 | 101 | 51 |  |  |  |  |

More lines, now with the values behind:

| Compound | EC50 [3] [µM] | cytotoxicity at 3 days [1, 4] [%] | EC50 (human PBMC; [5]) [µM] | cytotoxicity [2, 6] [%] | Max Eff.: IL-2 (1297) [3] [%] | cytotoxicity [2, 7] [%] | cytotoxicity at 3 days ([1]; PBMC IL-17 assay, read-out: maximum reduction of cell viability) [%] | EC50 (human PBMC; PBMC IL-17 assay, read-out: EC50, cell viability) [µM] | inhibition of IL-2 secretion, in words [3] |
| --- | --- | --- | --- | --- | --- | --- | --- | --- | --- |
| CCOc1cc(O)cc(/C=C/c2ccc(O)c(O)c2)c1CC=C(C)C [Compound 20, (E)-4-(3-Ethoxy-5-hydroxy-2-(3-methylbut-2-en-1-yl)styryl)benzene-1,2-diol] | 5 | 47 | 5 | 76 | 34 |  |  |  |  |
| COc1cc(/C=C/c2cc(O)cc(OC)c2CC=C(C)C)ccc1NC=O [Compound 27, (E)-N-(4-(5-hydroxy-3-methoxy-2-(3-methylbut-2-en-1-yl)styryl)-2-methoxyphenyl)formamide] | 5 | 52 | 5 |  | 46 | 83 |  |  |  |
| CCOc1cc(O)cc(/C=C/c2ccc(NC=O)c(OC)c2)c1CC=C(C)C [Compound 28, (E)-N-(4-(3-Ethoxy-5-hydroxy-2-(3-methylbut-2-en-1-yl)styryl)-2-methoxyphenyl)formamide] | 4.26 |  | 0.659 |  | 55 | 81 | 54 | 0.659 | lower potency effect |
| COc1cc(/C=C/c2cc(O)cc(OC)c2CC=C(C)C)ccc1NC(=O)CN [Compound 31, (E)-2-amino-N-(4-(5-hydroxy-3-methoxy-2-(3-methylbut-2-en-1-yl)styryl)-2-methoxyphenyl)acetamide] | 5 | 32 | 5 | 100 | 36 |  |  |  |  |
| CCOc1cc(O)cc(/C=C/c2ccc(NC(=O)C(=O)O)c(OC)c2)c1CC=C(C)C [Compound 35, (E)-2-((4-(3-Ethoxy-5-hydroxy-2-(3-methylbut-2-en-1-yl)styryl)-2-methoxyphenyl)amino)-2-oxoacetic acid] | 5 | 18 | 5 | 72 | 16 |  |  |  |  |
